pIC50: −log10 of the molar value.
What follows are compounds tested against T1, FAK enzyme (6 His tagged kinase domain, GenBank NP—722560) (Homo sapiens, UniProt Q05397) (assay: In vitro enzyme assay (a): sandwich ELISA of FAK tyrosine kinase activity on polyGAT peptide, TMB colorimetric endpoint). Conditions: in vitro Enzyme Assay test (a); ATP at Km; geometric mean of n > 1 measurements, values marked * tested once.
T1 construct: 6 His; made in house; host or cells: insect cell culture infected with baculovirus
Format: biochemical
Method in brief: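 Recombinant His-tagged FAK kinase domain (baculovirus/insect cells) phosphorylated plate-coated polyGAT with ATP at Km, MgCl2/MnCl2, HEPES pH 7.4, 25 min at room temperature before EDTA stop. Phosphotyrosine detected by HRP-4G10 antibody and TMB absorbance at 450 nm; IC50 from 12-point curve anchored to DMSO and staurosporine controls.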

T1 sequence (Q05397 422-680 limits assumed): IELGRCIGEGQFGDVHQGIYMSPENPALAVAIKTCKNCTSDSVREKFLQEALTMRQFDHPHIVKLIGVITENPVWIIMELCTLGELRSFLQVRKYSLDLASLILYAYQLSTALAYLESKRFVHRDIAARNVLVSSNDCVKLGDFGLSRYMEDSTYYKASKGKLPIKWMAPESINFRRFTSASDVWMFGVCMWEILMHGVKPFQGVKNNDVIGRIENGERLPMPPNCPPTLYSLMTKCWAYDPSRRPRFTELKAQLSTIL

| SMILES | pIC50 |
| --- | --- |
| CN1CCc2cccc(Nc3cc(Nc4cnn(C)c4)ncc3F)c2C1=O [Example 4.14, 8-[[5-fluoro-2-[(1-methylpyrazol-4-yl)amino]-4-pyridyl]amino]-2-methyl-3,4-dihydroisoquinolin-1-one] | 6.39 |
| CN1CCc2cccc(Nc3cc(Nc4cnn(C5CCOCC5)c4)ncc3F)c2C1=O [Example 4.15, 8-[[5-fluoro-2-[(1-tetrahydropyran-4-ylpyrazol-4-yl)amino]-4-pyridyl]amino]-2-methyl-3,4-dihydroisoquinolin-1-one] | 6.34 |
| CN1CCC(n2cc(Nc3cc(Nc4cccc5c4C(=O)N(C)CC5)c(F)cn3)cn2)CC1 [Example 4.16, 8[[5-fluoro-2-[[1-(1-methyl-4-piperidyl)pyrazol-4-yl]amino]-4-pyridyl]amino]-2-methyl-3,4-dihydroisoquinolin-1-one] | 6.33 |
| CN1CCc2cccc(Nc3cc(Nc4cnn(C5CCNCC5)c4)ncc3F)c2C1=O [Example 4.17, 8-[[5-Fluoro-2-[[1-(4-piperidyl)pyrazol-4-yl]amino]-4-pyridyl]amino]-2-methyl-3,4-dihydroisoquinolin-1-one] | 6.72 |
| CN1CCc2cccc(Nc3cc(Nc4cnn(C5CCCNC5)c4)ncc3F)c2C1=O (stereo not drawn) [Example 4.18, 8-[[5-fluoro-2-[[1-(3-piperidyl)pyrazol-4-yl]amino]-4-pyridyl]amino]-2-methyl-3,4-dihydroisoquinolin-1-one] | 6.17 |
| CN1CCc2cccc(Nc3cc(Nc4ccn(C5CCNCC5)n4)ncc3F)c2C1=O [Example 4.19, 8-[[5-fluoro-2-[[1-(4-piperidyl)pyrazol-3-yl]amino]-4-pyridyl]amino]-2-methyl-3,4-dihydroisoquinolin-1-one] | 7.08 |
| CN1CCc2cccc(Nc3cc(Nc4cnn(CC(=O)N5CCCC5)c4)ncc3F)c2C1=O [Example 4.20, 8-[[5-Fluoro-2-[[1-(2-oxo-2-pyrrolidin-1-yl-ethyl)pyrazol-4-yl]amino]-4-pyridyl]amino]-2-methyl-3,4-dihydroisoquinolin-1-one] | 6.52 |
| CN(C)CCCNC(=O)Cn1cc(Nc2cc(Nc3cccc4c3C(=O)N(C)CC4)c(F)cn2)cn1 [Example 4.21, N-(3-dimethylaminopropyl)-2-[4-[[5-fluoro-4-[(2-methyl-1-oxo-3,4-dihydroisoquinolin-8-yl)amino]-2-pyridyl]amino]pyrazol-1-yl]acetamide] | 6.73 |
| CN(C)CCNC(=O)Cn1cc(Nc2cc(Nc3cccc4c3C(=O)N(C)CC4)c(F)cn2)cn1 [Example 4.22, N-(2-dimethylaminoethyl)-2-[4-[[5-fluoro-4-[(2-methyl-1-oxo-3,4-dihydroisoquinolin-8-yl)amino]-2-pyridyl]amino]pyrazol-1-yl]acetamide] | 6.44 |
| COCCNC(=O)Cn1cc(Nc2cc(Nc3cccc4c3C(=O)N(C)CC4)c(F)cn2)cn1 [Example 4.23, 2-[4-[[5-fluoro-4-[(2-methyl-1-oxo-3,4-dihydroisoquinolin-8-yl)amino]-2-pyridyl]amino]pyrazol-1-yl]-N-(2-methoxyethyl)acetamide] | 6.35 |
| COCCN(C)C(=O)Cn1cc(Nc2cc(Nc3cccc4c3C(=O)N(C)CC4)c(F)cn2)cn1 [Example 4.24, 2-[4-[[5-fluoro-4-[(2-methyl-1-oxo-3,4-dihydroisoquinolin-8-yl)amino]-2-pyridyl]amino]pyrazol-1-yl]-N-(2-methoxyethyl)-N-methyl-acetamide] | 6.53 |
| CN1CCc2cccc(Nc3cc(Nc4cnn(CC(=O)N5CCOCC5)c4)ncc3F)c2C1=O [Example 4.25, 8-[[5-fluoro-2-[[1-(2-morpholino-2-oxo-ethyl)pyrazol-4-yl]amino]-4-pyridyl]amino]-2-methyl-3,4-dihydroisoquinolin-1-one] | 6.69 |
| CN1CCN(C(=O)Cn2cc(Nc3cc(Nc4cccc5c4C(=O)N(C)CC5)c(F)cn3)cn2)CC1 [Example 4.26, 8-[[5-fluoro-2-[[1-[2-(4-methylpiperazin-1-yl)-2-oxo-ethyl]pyrazol-4-yl]amino]-4-pyridyl]amino]-2-methyl-3,4-dihydroisoquinolin-1-one] | 6.70 |
| CNC1CCN(C(=O)Cn2cc(Nc3cc(Nc4cccc5c4C(=O)N(C)CC5)c(F)cn3)cn2)C1 (stereo not drawn) [Example 4.27, 8-[[5-Fluoro-2-[[1-[2-(3-methylaminopyrrolidin-1-yl)-2-oxo-ethyl]pyrazol-4-yl]amino]-4-pyridyl]amino]-2-methyl-3,4-dihydroisoquinolin-1-one] | 7.14 |
| Cc1nn(C)cc1Nc1cc(Nc2ccc(N3CCN(C(C)C)CC3)c3c2C(=O)N(C)C3)c(F)cn1 [Example 4.28, 7-[[2-[(1,3-Dimethylpyrazol-4-yl)amino]-5-fluoro-4-pyridyl]amino]-4-(4-isopropylpiperazin-1-yl)-2-methyl-isoindolin-1-one] | 5.95 |
| CN1CCN(c2[nH]nc(Nc3cc(Nc4cccc5c4C(=O)N(C)CC5)c(F)cn3)c2C#N)CC1 [Example 4.29, 3-[[5-Fluoro-4-[(2-methyl-1-oxo-3,4-dihydroisoquinolin-8-yl)amino]-2-pyridyl]amino]-5-(4-methylpiperazin-1-yl)-1H-pyrazole-4-carbonitrile] | 4.64 |
| Cc1nn(C)cc1Nc1cc(Nc2cccc3c2C(=O)N(C)CC3)c(C(F)(F)F)cn1 [Example 5.01, 8-[[2-[(1,3-dimethylpyrazol-4-yl)amino]-5-(trifluoromethyl)-4-pyridyl]amino]-2-methyl-3,4-dihydroisoquinolin-1-one] | 8.22 |

| SMILES | pIC50 |
| --- | --- |
| CNC(=O)c1c(Nc2cc(Nc3cn(C)nc3C)ncc2C(F)(F)F)cccc1OC [Example 5.02, 2-[[2-[(1,3-dimethylpyrazol-4-yl)amino]-5-(trifluoromethyl)-4-pyridyl]amino]-6-methoxy-N-methyl-benzamide] | 8.05 |
| Cc1nn(C)cc1Nc1cc(Nc2cccc3c2C(=O)N(C)CCO3)c(C(F)(F)F)cn1 [Example 5.03, 6-[[2-[(1,3-dimethylpyrazol-4-yl)amino]-5-(trifluoromethyl)-4-pyridyl]amino]-4-methyl-2,3-dihydro-1,4-benzoxazepin-5-one] | 8.22 |
| CN1CCc2cccc(Nc3cc(Nc4ccnn4C)ncc3Cl)c2C1=O [Example 6.01, 8-[[5-chloro-2-[(2-methylpyrazol-3-yl)amino]-4-pyridyl]amino]-2-methyl-3,4-dihydroisoquinolin-1-one] | 8.22 |
| Cc1cc(Nc2cc(Nc3cccc4c3C(=O)N(C)CC4)c(Cl)cn2)n(C)n1 [Example 6.02, 8-[[5-chloro-2-[(2,5-dimethylpyrazol-3-yl)amino]-4-pyridyl]amino]-2-methyl-3,4-dihydroisoquinolin-1-one] | 8.15 |
| Cc1c(Nc2cc(Nc3cccc4c3C(=O)N(C)CC4)c(Cl)cn2)cnn1C [Example 6.03, 8-[[5-chloro-2-[(1,5-dimethylpyrazol-4-yl)amino]-4-pyridyl]amino]-2-methyl-3,4-dihydroisoquinolin-1-one] | 8.30 |
| CCn1cc(Nc2cc(Nc3cccc4c3C(=O)N(C)CC4)c(Cl)cn2)c(C)n1 [Example 6.04, 8-[[5-chloro-2-[(1-ethyl-3-methyl-pyrazol-4-yl)amino]-4-pyridyl]amino]-2-methyl-3,4-dihydroisoquinolin-1-one] | 8.22 |
| CN1CCc2cccc(Nc3cc(Nc4cc(C5CC5)nn4C)ncc3Cl)c2C1=O [Example 6.05, 8-[[5-chloro-2-[(5-cyclopropyl-2-methyl-pyrazol-3-yl)amino]-4-pyridyl]amino]-2-methyl-3,4-dihydroisoquinolin-1-one] | 8.00 |
| CCn1nccc1Nc1cc(Nc2cccc3c2C(=O)N(C)CC3)c(Cl)cn1 [Example 6.06, 8-[[5-chloro-2-[(2-ethylpyrazol-3-yl)amino]-4-pyridyl]amino]-2-methyl-3,4-dihydroisoquinolin-1-one] | 8.40 |
| CN1CCc2cccc(Nc3cc(Nc4ccn(C)n4)ncc3Cl)c2C1=O [Example 6.07, 8-[[5-chloro-2-[(1-methylpyrazol-3-yl)amino]-4-pyridyl]amino]-2-methyl-3,4-dihydroisoquinolin-1-one] | 8.05 |
| CCc1nn(C(C)(C)C)c(Nc2cc(Nc3cccc4c3C(=O)N(C)CC4)c(Cl)cn2)c1C [Example 6.08, 8-[[2-[(2-tert-butyl-5-ethyl-4-methyl-pyrazol-3-yl)amino]-5-chloro-4-pyridyl]amino]-2-methyl-3,4-dihydroisoquinolin-1-one] | 5.25 |
| CC(C)Cn1cc(Nc2cc(Nc3cccc4c3C(=O)N(C)CC4)c(Cl)cn2)cn1 [Example 6.09, 8-[[5-chloro-2-[(1-isobutylpyrazol-4-yl)amino]-4-pyridyl]amino]-2-methyl-3,4-dihydroisoquinolin-1-one] | 7.15 |
| CNC(=O)c1ccccc1Nc1cc(Nc2ccnn2C)ncc1C(F)(F)F [Example 8.01, N-methyl-2-[[2-[(2-methylpyrazol-3-yl)amino]-5-(trifluoromethyl)-4-pyridyl]amino]benzamide] | 8.22 |
| CNC(=O)c1ccccc1Nc1cc(Nc2cc(C)nn2C)ncc1C(F)(F)F [Example 8.02, 2-[[2-[(2,5-dimethylpyrazol-3-yl)amino]-5-(trifluoromethyl)-4-pyridyl]amino]-N-methyl-benzamide] | 8.10 |
| CNC(=O)c1ccccc1Nc1cc(Nc2cnn(C)c2C)ncc1C(F)(F)F [Example 8.03, 2-[[2-[(1,5-dimethylpyrazol-4-yl)amino]-5-(trifluoromethyl)-4-pyridyl]amino]-N-methyl-benzamide] | 8.22 |
| CCn1cc(Nc2cc(Nc3ccccc3C(=O)NC)c(C(F)(F)F)cn2)c(C)n1 [Example 8.04, 2-[[2-[(1-ethyl-3-methyl-pyrazol-4-yl)amino]-5-(trifluoromethyl)-4-pyridyl]amino]-N-methyl-benzamide] | 8.22 |
| CCn1cc(Nc2cc(Nc3ccccc3C(=O)NC)c(C(F)(F)F)cn2)cn1 [Example 8.05, 2-[[2-[(1-ethylpyrazol-4-yl)amino]-5-(trifluoromethyl)-4-pyridyl]amino]-N-methyl-benzamide] | 7.85 |

Source: US8569298B2, “Pyridine compounds” (Astrazeneca AB, priority 2008, dated 2013)
